Test results from patent US20240374558A1, “PREPARATION OF PHENE[…] […] STEREOISOMERS THEREOF AND PRECURSORS THEREOF” (priority 2022, published 2024).
Where a name gives a salt, the structure may show the parent alone.

Key:
Assay type in all cases: cell-based
KCNQ1/mink = target: T1, KCNQ1/mink (Homo sapiens, UniProt P51787); assay: hKCNQ1/hminK Potassium Channel Assay, Qube APC; conditions: Antagonist mode; CHO-KCNQ1/minK; test compound
T1 construct: host or cells: CHO
Description: (§1) Electrophysiological assays were conducted to profile three compounds ((R)-methylone, (S)-methylone, or racemic methylone) for activities on the ion channel targets specified below using the Qube electrophysiological platform. Where presented, IC50 values were determined by a non-linear, least squares regression analysis. Reference standards were run as an integral part of each assay to ensure the validity of the results obtained.
(§2) Ion Channels tested were Eurofins Panel Part Number: CPROFullQB2DR Voltage-Gated Sodium: HEK-Nav1.5 (Peak), HEK-Nav1.5 (Late, Antagonist) Voltage-Gated Potassium: HEK-Kv4.3/KChIP2, CHO-hERG, CHO-KCNQ1/minK Voltage-Gated Calcium: HEK-Cav1.2 Inward-Rectifying Voltage-Gated Potassium: HEK-Kir2.1.
(§3) hKCNQ1/hminK Potassium Channel Assay—Qube APC After whole cell configuration is achieved, the cells are held at −80 mV. KCNQ1/minK currents are evoked by a 1000 ms pulse from −80 mV to 60 mV followed by a ramp from 60 mV to −80 mV over 115 ms with the outward peak currents measured upon depolarization of the cell membrane. This paradigm is delivered once every 15s to monitor the current amplitude. [0223] hKir2.1 Potassium Channel Assay—Qube APC After whole cell configuration is achieved, the cells are held at −30 mV. Kir2.1 currents are evoked by a single 500 ms pulse to -120 mV before returning to the holding potential of −30 mV. This paradigm is delivered once every 20s to monitor the current amplitude.

Nav1.5 = target: T2, Nav1.5 (Homo sapiens, UniProt Q14524); assay: hNav1.5 Sodium Channel Assay (peak), Qube APC; conditions: Antagonist mode; HEK-Nav1.5 (Peak); test compound
T2 construct: host or cells: HEK-293
Description: (§4) Where presented, IC50 values were determined by a non-linear, least squares regression analysis.
(§5) Recombinant HEK-293 cells stably transfected with human NavL.5 cDNA, recombinant HEK293 cell line expressing the human Cavl.2 (L-type voltage gated calcium channel, hCavl.2 alC/02a/a281, and recombinant CHO-K1 cells stably transfected with human hERG cDNA were used separately in each of these assays.
as §2
(§6) Methods employed in this study have been developed and validated with reliability and reproducibility by Eurofins. Assays were performed under conditions below. […] Peak current is measured during the step to −15 mV. […] Onset and steady state block of hKv4.3 current is measured using a pulse pattern from −80 mV to 40 mV amplitude for a 110 ms duration, and finally a 100 ms ramp (1.2 V/s) to −80 mV. This paradigm is delivered once every 5s to monitor the current amplitude. […] Cavl.2 currents are evoked by a 50 ms pulse to −100 mV followed by a 200 ms pulse to +20 mV before returning to the holding potential of −90 mV. This paradigm is delivered three times every 60s to monitor the current amplitude. [0220] hNav1.5 Late Current Sodium Channel Assay—Qube APC Onset and steady state block of Late Nay1.5 current is measured using a pulse pattern, repeated every 5 sec, consisting of a hyperpolarizing pulse to −120 mV for a 200 ms duration, depolarization to −15 mV amplitude for a 40 ms duration, followed by step to 40 mV for 200 ms and finally a 100 ms ramp (1.2 V/s) to a holding potential of −80 mV. Late current is measured as charge current elicited during the ramp with 50 nM ATXII.

Cav1.2 = target: T3, Cav1.2 (Homo sapiens, UniProt Q13936); assay: hCav1.2 (L-type) Calcium Channel Assay, Qube APC; conditions: Antagonist mode; HEK-Cav1.2; test compound
T3 construct: host or cells: HEK293
Description: as §4, §5, §2, §6

Nav1.5 Late Current = target: T4, Nav1.5 Late Current (Homo sapiens, UniProt Q14524); assay: hNav1.5 Late Current Sodium Channel Assay, Qube APC; conditions: Antagonist mode; HEK-Nav1.5 (Late), 50 nM ATXII; test compound
T4 construct: host or cells: HEK-293
Description: as §1, §2
Methods employed in this study have been developed and validated with reliability and reproducibility by Eurofins. Assays were performed under conditions below. [0217] hNavL.5 Sodium Channel Assay—Qube APC Onset and steady state block of peak Nay1.5 current is measured using a pulse pattern, repeated every 5 sec, consisting of a hyperpolarizing pulse to −120 mV for a 200 ms duration, depolarization to −15 mV amplitude for a 40 ms duration, followed by step to 40 mV for 200 ms and finally a 100 ms ramp (1.2 V/s) to a holding potential of −80 mV. Peak current is measured during the step to −15 mV. […] Onset and steady state block of hKv4.3 current is measured using a pulse pattern from −80 mV to 40 mV amplitude for a 110 ms duration, and finally a 100 ms ramp (1.2 V/s) to −80 mV. […] [0220] hNav1.5 Late Current Sodium Channel Assay—Qube APC Onset and steady state block of Late Nay1.5 current is measured using a pulse pattern, repeated every 5 sec, consisting of a hyperpolarizing pulse to −120 mV for a 200 ms duration, depolarization to −15 mV amplitude for a 40 ms duration, followed by step to 40 mV for 200 ms and finally a 100 ms ramp (1.2 V/s) to a holding potential of −80 mV. Late current is measured as charge current elicited during the ramp with 50 nM ATXII.

Kir2.1 = target: T5, Kir2.1 (Homo sapiens, UniProt P63252); conditions: Antagonist mode; HEK-Kir2.1; test compound
T5 construct: host or cells: HEK
T5 sequence (P63252 1-427): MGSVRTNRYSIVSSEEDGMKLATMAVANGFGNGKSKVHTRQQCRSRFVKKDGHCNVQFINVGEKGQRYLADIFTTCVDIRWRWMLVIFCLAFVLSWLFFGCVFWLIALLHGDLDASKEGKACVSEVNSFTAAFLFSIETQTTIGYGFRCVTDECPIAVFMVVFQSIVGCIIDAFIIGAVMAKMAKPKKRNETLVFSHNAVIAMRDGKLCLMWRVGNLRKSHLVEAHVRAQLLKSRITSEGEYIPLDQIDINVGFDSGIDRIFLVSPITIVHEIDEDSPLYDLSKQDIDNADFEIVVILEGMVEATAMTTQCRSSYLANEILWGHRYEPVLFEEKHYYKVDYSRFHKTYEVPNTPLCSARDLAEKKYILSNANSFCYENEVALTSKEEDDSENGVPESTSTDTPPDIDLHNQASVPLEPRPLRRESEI
Description: as §1, §2, §3

T1 sequence (P51787 whole entry): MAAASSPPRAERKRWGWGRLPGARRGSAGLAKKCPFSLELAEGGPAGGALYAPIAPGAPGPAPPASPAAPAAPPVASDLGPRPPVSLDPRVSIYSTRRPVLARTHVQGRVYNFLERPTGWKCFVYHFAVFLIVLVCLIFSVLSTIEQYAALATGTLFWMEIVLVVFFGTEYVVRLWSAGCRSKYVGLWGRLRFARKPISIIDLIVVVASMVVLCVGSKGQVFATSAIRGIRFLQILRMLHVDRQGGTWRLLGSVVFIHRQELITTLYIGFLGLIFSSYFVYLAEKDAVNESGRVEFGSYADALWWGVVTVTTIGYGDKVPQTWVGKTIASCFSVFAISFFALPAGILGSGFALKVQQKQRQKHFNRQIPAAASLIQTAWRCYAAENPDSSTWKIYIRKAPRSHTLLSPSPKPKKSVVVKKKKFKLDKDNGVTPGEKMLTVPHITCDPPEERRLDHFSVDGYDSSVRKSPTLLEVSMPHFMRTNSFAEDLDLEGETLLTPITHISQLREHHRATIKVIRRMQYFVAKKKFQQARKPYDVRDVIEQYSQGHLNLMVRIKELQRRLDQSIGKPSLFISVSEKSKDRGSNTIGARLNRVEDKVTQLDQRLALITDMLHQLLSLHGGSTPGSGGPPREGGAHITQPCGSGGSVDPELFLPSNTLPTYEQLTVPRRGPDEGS
T3 sequence (Q13936 whole entry): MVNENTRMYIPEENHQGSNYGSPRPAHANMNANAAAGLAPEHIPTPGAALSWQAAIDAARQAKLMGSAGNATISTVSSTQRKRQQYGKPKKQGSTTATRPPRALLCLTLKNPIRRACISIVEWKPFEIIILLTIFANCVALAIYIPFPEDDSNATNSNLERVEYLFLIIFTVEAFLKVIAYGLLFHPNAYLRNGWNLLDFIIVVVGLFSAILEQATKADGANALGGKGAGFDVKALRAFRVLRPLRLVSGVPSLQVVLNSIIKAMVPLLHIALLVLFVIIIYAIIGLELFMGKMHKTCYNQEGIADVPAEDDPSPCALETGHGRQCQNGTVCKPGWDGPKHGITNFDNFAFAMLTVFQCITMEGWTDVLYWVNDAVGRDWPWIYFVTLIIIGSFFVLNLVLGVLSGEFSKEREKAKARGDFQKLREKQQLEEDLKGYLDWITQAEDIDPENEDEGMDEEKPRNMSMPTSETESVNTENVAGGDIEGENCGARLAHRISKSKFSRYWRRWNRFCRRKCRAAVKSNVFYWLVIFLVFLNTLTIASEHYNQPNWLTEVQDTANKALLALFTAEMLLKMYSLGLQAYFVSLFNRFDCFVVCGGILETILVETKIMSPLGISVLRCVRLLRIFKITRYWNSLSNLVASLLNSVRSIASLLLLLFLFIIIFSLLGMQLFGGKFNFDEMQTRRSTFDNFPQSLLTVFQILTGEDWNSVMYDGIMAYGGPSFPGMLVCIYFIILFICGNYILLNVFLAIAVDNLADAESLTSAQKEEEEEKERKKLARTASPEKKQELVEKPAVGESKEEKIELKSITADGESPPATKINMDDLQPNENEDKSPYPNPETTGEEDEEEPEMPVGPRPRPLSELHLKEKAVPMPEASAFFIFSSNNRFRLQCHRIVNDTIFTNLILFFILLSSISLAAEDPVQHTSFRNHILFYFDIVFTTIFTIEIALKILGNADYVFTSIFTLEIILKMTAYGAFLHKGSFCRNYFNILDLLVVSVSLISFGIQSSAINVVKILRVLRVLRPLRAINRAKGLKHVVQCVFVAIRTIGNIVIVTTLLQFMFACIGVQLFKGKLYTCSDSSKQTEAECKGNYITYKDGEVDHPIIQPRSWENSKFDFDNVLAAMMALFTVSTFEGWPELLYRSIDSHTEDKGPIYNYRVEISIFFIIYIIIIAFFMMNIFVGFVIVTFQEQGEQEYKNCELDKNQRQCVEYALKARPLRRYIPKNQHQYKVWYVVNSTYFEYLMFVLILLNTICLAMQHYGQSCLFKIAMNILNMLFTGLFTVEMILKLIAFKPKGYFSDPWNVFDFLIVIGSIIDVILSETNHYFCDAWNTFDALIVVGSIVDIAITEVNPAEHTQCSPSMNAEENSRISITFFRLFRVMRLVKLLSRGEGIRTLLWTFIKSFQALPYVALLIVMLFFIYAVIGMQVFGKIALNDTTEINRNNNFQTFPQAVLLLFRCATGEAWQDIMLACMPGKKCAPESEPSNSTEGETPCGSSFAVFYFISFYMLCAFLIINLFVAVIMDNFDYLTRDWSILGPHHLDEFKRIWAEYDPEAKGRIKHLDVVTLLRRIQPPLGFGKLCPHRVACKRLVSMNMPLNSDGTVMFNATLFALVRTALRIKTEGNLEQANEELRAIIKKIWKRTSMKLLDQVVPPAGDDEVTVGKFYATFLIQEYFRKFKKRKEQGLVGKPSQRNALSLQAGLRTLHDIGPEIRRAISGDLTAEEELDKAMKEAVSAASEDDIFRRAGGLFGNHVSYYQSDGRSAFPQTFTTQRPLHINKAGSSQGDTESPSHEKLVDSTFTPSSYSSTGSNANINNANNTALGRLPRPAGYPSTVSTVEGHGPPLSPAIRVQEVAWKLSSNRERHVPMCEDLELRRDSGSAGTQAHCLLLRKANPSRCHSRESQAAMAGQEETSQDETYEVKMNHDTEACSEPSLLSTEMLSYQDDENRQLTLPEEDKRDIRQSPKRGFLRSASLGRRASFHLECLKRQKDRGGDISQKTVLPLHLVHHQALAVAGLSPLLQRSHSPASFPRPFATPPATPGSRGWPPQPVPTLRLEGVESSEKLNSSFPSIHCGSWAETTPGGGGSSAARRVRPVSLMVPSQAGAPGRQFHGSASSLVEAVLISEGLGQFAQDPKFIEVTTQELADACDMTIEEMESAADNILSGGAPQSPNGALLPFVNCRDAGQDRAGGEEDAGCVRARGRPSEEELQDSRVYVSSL
T3 sequence (Q08289 1-605 isoform Q08289-2 partner): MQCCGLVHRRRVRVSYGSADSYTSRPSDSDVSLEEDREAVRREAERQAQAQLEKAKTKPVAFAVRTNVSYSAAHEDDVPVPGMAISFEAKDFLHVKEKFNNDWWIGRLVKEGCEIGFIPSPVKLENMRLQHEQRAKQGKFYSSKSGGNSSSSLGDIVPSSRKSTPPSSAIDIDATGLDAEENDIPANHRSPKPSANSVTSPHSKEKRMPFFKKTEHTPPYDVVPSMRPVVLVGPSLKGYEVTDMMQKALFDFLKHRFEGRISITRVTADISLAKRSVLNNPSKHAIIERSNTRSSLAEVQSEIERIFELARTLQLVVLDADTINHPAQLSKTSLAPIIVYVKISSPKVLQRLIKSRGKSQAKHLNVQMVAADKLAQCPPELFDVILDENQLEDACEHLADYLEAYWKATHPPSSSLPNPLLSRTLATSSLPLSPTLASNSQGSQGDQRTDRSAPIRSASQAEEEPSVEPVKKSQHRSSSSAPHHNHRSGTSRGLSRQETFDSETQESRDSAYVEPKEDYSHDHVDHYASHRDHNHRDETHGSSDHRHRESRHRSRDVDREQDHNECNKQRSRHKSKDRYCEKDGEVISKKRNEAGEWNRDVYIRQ
T3 sequence (P54289 25-956 partner limits assumed): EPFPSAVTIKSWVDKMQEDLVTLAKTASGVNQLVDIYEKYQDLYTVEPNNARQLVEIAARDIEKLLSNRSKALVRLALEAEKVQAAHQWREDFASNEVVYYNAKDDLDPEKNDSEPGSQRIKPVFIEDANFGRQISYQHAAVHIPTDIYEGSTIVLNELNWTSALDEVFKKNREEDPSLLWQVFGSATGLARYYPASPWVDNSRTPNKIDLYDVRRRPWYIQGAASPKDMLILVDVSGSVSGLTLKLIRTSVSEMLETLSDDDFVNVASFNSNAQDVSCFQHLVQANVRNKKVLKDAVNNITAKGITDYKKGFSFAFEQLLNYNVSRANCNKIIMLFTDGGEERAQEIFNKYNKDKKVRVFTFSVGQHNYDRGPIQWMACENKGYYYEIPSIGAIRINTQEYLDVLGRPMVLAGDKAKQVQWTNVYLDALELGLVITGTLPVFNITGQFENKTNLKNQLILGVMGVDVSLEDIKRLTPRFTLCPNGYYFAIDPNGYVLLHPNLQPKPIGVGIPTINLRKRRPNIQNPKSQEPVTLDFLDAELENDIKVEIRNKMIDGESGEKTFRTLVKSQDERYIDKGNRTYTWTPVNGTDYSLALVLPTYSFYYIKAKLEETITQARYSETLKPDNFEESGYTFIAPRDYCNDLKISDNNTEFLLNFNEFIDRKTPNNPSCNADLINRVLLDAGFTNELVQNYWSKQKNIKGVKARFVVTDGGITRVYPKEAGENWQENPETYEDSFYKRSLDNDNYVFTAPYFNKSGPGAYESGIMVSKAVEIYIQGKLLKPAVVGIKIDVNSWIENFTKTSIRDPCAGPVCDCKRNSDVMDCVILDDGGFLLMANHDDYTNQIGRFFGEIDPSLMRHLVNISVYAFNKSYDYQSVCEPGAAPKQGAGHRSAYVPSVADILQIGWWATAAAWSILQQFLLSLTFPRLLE
T3 sequence (P54289 957-1103 partner limits assumed): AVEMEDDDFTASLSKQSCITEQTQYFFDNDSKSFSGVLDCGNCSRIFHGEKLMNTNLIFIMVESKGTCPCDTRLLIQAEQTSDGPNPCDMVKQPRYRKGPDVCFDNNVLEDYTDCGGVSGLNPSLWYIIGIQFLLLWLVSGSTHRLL

CN[C@@H](C)C(=O)c1ccc2c(c1)OCO2 [(S)-methylone]
Estimated IC50 (KCNQ1/mink): N/C (N/C indicates observed mean inhibition was <25%)
Estimated IC50 (Nav1.5): N/C (N/C indicates observed mean inhibition was <25%)
Estimated IC50 (Cav1.2): N/C (N/C indicates observed mean inhibition was <25%)
Estimated IC50 (Nav1.5 Late Current): N/C (N/C indicates observed mean inhibition was <25%)
Estimated IC50 (Kir2.1): N/C (N/C indicates observed mean inhibition was <25%)

CNC(C)C(=O)c1ccc2c(c1)OCO2 (stereo not drawn) [Methylone HCl, methylone HCl]
Estimated IC50 (KCNQ1/mink): N/C (N/C indicates observed mean inhibition was <25%)
Estimated IC50 (Nav1.5): N/C (N/C indicates observed mean inhibition was <25%)
Estimated IC50 (Cav1.2): N/C (N/C indicates observed mean inhibition was <25%)
Estimated IC50 (Nav1.5 Late Current): N/C (N/C indicates observed mean inhibition was <25%)
Estimated IC50 (Kir2.1): N/C (N/C indicates observed mean inhibition was <25%)

CN[C@H](C)C(=O)c1ccc2c(c1)OCO2 [(R)-methylone]
Estimated IC50 (KCNQ1/mink): N/C (N/C indicates observed mean inhibition was <25%)
Estimated IC50 (Nav1.5): N/C (N/C indicates observed mean inhibition was <25%)
Estimated IC50 (Cav1.2): N/C (N/C indicates observed mean inhibition was <25%)
Estimated IC50 (Nav1.5 Late Current): N/C (N/C indicates observed mean inhibition was <25%)
Estimated IC50 (Kir2.1): N/C (N/C indicates observed mean inhibition was <25%)
